This note sets out measurements from paper PMC5862592, “CDK8/19 inhibition induces premature G1/S transition and ATR-dependent cell death in prostate cancer cells” (Oncotarget, 2018).

Like-named read-outs stand apart in the source and are kept apart here.

Holding throughout (assay): biochemical
What all share (set-up): KINOMEscan active site-directed competition binding assay (DiscoveRx), 456 kinases, per cent of control at 300 nM
What all share (conditions): read-out: Percent of Control (%)

One assay deals with TSSK1B (Homo sapiens, UniProt Q9BXA7). The method, then: (§1) Kinase selectivity of T-474 and T-418 was evaluated at 300 nmol/L using a panel of 456 kinases at DiscoveRx (KINOMEscan). The platform employs an active site-directed competition binding assay to quantitatively measure interactions between test compounds and kinases. […] In VCaP prostate cancer cells, treatment with T-474 or T-418 suppressed the phosphorylation of the known CDK8 substrate STAT1 at Ser727 both in the absence and in the presence of IFN-γ (Figure 1B), which stimulates CDK8-mediated STAT1 phosphorylation.

The next assay concerns the target CDK2 (Homo sapiens, UniProt P24941). The method, then:
as §1

Assay [1] has as its target EGFR(L747-E749del, A750P) (Homo sapiens, UniProt P00533, A750P/DEL747-749). The procedure: as §1
The target in the next assay is NEK7 (Homo sapiens, UniProt Q8TDX7). The procedure: as §1
For the next assay, the target named is RET(M918T) (Homo sapiens, UniProt P07949, M918T). The procedure: as §1
The target of a further assay is PRKD1 (Homo sapiens, UniProt Q15139). The procedure:
as §1

The target of another assay is T1, PFTK1 (Homo sapiens, UniProt O94921).
T1 construct: gene CDK14
The procedure: as §1

The target in the next assay is T2, p38-delta (Homo sapiens, UniProt O15264).
T2 construct: gene MAPK13
The method, then: as §1

The next assay has as its target HIPK1 (Homo sapiens, UniProt Q86Z02). The method, then:
as §1

The next assay has as its target MAP3K15 (Homo sapiens, UniProt Q6ZN16). The method, then: as §1
The target of another assay is ALK(C1156Y) (Homo sapiens, UniProt Q9UM73, C1156Y). The procedure: as §1
ALK(C1156Y), sequence (Q9UM73 whole entry C1156Y): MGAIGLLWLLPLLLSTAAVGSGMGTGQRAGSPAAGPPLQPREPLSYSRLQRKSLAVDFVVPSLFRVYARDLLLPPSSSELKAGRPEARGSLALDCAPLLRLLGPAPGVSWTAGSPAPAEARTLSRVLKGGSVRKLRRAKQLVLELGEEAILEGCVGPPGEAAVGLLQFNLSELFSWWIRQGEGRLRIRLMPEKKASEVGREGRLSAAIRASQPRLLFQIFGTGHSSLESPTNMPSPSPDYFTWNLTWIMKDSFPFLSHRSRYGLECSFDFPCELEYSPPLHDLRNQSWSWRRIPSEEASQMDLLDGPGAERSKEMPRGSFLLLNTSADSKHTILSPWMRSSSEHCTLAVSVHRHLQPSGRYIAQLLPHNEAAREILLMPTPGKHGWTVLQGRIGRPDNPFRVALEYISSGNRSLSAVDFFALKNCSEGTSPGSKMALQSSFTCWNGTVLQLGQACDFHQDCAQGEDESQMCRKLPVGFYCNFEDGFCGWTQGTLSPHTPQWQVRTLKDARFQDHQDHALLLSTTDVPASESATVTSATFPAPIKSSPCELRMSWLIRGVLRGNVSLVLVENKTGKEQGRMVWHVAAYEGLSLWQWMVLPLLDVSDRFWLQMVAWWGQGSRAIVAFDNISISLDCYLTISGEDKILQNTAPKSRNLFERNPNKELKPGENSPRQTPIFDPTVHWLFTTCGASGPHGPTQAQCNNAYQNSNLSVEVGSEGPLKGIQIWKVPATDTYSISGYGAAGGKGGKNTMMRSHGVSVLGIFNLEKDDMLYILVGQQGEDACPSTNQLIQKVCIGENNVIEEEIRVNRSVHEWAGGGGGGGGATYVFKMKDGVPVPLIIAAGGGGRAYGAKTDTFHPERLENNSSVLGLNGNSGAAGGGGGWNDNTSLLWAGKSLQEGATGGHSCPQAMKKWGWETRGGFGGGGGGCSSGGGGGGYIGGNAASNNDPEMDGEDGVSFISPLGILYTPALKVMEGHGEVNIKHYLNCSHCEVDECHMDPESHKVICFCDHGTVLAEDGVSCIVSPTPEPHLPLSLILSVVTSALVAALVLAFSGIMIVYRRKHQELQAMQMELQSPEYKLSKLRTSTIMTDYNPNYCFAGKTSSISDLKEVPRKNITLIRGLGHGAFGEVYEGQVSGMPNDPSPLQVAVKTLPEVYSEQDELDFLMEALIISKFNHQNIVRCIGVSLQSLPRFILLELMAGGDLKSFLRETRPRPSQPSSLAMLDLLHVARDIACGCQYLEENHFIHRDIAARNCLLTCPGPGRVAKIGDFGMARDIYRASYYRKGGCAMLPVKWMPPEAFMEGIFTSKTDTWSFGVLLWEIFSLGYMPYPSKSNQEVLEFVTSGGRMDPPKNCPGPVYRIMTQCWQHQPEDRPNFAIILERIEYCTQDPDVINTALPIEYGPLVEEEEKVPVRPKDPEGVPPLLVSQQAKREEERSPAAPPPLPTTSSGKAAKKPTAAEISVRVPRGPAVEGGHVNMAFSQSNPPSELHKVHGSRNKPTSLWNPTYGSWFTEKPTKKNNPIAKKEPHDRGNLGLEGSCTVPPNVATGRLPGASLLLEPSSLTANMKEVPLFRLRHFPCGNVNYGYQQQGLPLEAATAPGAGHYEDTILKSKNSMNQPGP
The target of a further assay is T3, ASK2 (Homo sapiens, UniProt O95382).
T3 construct: gene MAP3K6
The procedure: as §1

For another assay, the target named is TNK1 (Homo sapiens, UniProt Q13470). The method, then:
as §1

The target in the next assay is FLT3 (Homo sapiens, UniProt P36888). The method, then:
as §1

In a further assay the target is STK16 (Homo sapiens, UniProt O75716). The method, then:
as §1

For another assay, the target named is PLK1 (Homo sapiens, UniProt P53350). The procedure: as §1
The target in a further assay is T4, PRP4 (Homo sapiens, UniProt Q13523).
T4 construct: gene PRPF4B
The procedure:
as §1

A further assay concerns the target INSR (Homo sapiens, UniProt P06213). The procedure: as §1
In the next assay the target is MARK4 (Homo sapiens, UniProt Q96L34). The procedure:
as §1

A further assay deals with T5, PKAC-alpha (Homo sapiens, UniProt P17612).
T5 construct: gene PRKACA
The method, then:
as §1

The next assay concerns the target MKNK2 (Homo sapiens, UniProt Q9HBH9). The method, then:
as §1

The next assay deals with EGFR(L861Q) (Homo sapiens, UniProt P00533, L861Q). The procedure: as §1

TNK1, sequence (Q13470 whole entry): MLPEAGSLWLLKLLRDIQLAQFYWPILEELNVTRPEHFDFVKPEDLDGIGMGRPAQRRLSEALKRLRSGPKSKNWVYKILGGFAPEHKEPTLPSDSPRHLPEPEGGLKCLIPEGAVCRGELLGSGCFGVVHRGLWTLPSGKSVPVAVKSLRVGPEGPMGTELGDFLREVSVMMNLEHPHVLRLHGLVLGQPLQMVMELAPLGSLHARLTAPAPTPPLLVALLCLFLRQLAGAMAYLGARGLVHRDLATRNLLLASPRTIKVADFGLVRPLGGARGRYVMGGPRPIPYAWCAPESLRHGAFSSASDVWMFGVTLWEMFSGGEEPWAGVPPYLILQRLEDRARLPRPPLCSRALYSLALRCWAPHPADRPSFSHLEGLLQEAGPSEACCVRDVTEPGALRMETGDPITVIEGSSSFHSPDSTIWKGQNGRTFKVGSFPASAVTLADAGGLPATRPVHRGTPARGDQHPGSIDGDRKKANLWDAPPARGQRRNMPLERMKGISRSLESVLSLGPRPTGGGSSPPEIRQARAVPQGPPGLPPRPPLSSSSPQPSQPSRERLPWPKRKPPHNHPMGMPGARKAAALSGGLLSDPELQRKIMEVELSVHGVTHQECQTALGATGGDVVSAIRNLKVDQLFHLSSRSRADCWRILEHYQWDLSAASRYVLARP
INSR, sequence (P06213 whole entry): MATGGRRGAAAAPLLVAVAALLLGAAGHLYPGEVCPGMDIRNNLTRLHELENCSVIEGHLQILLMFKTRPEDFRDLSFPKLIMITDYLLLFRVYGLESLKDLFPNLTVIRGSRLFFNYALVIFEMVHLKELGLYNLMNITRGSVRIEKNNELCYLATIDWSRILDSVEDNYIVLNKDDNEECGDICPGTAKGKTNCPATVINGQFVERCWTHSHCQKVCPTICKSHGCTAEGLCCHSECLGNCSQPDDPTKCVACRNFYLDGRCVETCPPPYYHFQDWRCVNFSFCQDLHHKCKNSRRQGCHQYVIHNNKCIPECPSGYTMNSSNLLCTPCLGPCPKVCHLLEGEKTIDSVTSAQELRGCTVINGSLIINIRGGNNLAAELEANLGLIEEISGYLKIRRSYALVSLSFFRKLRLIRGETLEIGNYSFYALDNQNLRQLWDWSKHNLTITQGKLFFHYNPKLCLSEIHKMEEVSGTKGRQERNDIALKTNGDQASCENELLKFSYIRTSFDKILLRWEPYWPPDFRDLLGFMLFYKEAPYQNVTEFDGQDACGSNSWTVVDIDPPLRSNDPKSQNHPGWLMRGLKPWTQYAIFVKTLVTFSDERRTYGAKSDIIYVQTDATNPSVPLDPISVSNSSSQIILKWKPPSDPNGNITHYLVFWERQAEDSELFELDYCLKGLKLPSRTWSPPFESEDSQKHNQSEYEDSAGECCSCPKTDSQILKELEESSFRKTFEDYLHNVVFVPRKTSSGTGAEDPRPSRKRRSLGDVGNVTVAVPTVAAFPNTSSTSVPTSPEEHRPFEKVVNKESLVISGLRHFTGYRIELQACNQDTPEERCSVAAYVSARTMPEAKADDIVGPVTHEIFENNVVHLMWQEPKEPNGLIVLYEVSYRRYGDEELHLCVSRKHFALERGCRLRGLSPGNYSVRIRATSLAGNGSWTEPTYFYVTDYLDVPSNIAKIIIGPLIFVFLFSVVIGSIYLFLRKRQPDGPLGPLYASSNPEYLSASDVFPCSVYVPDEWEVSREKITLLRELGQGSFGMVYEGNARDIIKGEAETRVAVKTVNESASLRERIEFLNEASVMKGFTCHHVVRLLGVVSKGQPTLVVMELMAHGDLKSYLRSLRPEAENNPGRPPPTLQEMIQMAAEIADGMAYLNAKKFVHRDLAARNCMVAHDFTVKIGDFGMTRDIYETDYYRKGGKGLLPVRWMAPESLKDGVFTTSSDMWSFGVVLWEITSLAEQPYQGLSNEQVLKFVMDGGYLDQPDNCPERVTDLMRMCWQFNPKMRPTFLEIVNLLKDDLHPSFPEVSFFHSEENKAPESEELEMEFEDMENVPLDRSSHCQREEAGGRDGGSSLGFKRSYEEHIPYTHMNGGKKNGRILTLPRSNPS
HIPK1, sequence (Q86Z02 whole entry): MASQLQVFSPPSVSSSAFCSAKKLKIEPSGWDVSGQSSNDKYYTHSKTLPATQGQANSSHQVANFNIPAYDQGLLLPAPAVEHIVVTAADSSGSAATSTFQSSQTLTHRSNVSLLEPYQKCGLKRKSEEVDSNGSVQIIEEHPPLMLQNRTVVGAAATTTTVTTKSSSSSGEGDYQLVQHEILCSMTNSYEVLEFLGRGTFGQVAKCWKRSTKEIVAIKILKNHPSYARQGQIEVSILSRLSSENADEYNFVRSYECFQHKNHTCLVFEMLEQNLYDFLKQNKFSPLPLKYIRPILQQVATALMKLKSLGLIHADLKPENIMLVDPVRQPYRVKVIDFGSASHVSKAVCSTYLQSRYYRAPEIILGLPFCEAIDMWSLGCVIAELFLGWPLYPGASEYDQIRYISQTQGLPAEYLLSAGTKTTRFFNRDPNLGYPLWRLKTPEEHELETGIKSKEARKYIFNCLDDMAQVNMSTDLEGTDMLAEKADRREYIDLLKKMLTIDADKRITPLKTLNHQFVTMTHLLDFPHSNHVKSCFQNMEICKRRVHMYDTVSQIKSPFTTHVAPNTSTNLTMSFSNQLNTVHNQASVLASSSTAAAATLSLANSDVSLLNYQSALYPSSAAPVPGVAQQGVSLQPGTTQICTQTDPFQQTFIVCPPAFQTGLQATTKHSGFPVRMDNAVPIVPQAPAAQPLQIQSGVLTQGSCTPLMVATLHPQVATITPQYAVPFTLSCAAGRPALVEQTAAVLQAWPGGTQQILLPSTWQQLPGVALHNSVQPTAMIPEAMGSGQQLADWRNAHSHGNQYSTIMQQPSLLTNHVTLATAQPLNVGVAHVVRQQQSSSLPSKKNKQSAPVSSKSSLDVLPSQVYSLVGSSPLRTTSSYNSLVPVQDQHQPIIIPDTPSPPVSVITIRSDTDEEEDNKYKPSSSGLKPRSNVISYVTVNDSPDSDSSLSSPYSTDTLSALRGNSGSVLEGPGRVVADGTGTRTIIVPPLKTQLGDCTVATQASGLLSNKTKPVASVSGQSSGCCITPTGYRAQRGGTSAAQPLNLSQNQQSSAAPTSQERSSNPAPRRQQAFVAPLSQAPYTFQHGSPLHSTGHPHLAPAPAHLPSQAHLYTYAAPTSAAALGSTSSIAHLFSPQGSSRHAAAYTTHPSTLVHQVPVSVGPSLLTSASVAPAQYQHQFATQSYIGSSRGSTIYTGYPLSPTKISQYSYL

On to `O=C(/C=C/c1cnccc1-c1ccc(F)cc1)Nc1ccc(CCc2nnco2)cc1` [T-418, (2E)-3-(4-(4-fluorophenyl)pyridin-3-yl)-N-(4-(2-(1,3,4-oxadiazol-2-yl)ethyl)phenyl)acrylamide], for which the remaining binding at 0.3 µM at TSSK1B (sheet T-418) is 100%; at CDK2 (sheet T-418), 92%; in assay [1] (sheet T-418) it was 58%; on NEK7 (sheet T-418) it was 100%; at RET(M918T) (sheet T-418) it was 98%; at PRKD1 (sheet T-418) it was 96%. Further, the remaining binding at 0.3 µM was found to be 87% at PFTK1 (sheet T-418); 100% on p38-delta (sheet T-418); 75% on HIPK1 (sheet T-418); 100% at MAP3K15 (sheet T-418); 91% on ALK(C1156Y) (sheet T-418); 94% on ASK2 (sheet T-418). For the same compound, the remaining binding at 0.3 µM at TNK1 (sheet T-418) worked out at 87%; at FLT3 (sheet T-418), 66%; on STK16 (sheet T-418) it was 86%; at PLK1 (sheet T-418), 100%; on PRP4 (sheet T-418), 82%; on INSR (sheet T-418), 69%. Further, the remaining binding at 0.3 µM at MARK4 (sheet T-418) was 98%; on PKAC-alpha (sheet T-418), 66%; at MKNK2 (sheet T-418), 97%; at EGFR(L861Q) (sheet T-418), 86%.
With `Cc1ncccc1Oc1sc(C(N)=O)c2c1-c1c(cnn1C)CC2` [T-474, 1-methyl-8-((2-methylpyridin-3-yl)oxy)-4,5-dihydro-1H-thieno[3,4-g]indazole-6-carboxamide], the remaining binding at 0.3 µM stood at 100% on TSSK1B; 98% at CDK2; 68% in assay [1]; 100% at NEK7; 100% on RET(M918T); 96% at PRKD1. Besides, the remaining binding at 0.3 µM on PFTK1 is 100%; at p38-delta, 96%; on HIPK1 it was 81%; at MAP3K15, 100%; on ALK(C1156Y), 98%; on ASK2, 100%. Besides, the remaining binding at 0.3 µM came to 98% on TNK1; 100% at FLT3; 88% at STK16; 100% on PLK1; 89% on PRP4; 66% at INSR. For the same compound, the remaining binding at 0.3 µM at MARK4 amounted to 83%; on PKAC-alpha, 90%; on MKNK2, 86%; on EGFR(L861Q) it was 91%.
